Source: PubChem BioAssay (NCI)
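The compound was tested at five concentrations on cells cultured in 96-well plates, with a 48-hour exposure period. TGI: concentration producing complete growth inhibition.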

Assays:
Assay in all cases: NCI-60 cell line screen, 48 h
786-0 renal = tested on: 786-0 renal
A498 renal = tested on: A498 renal
BT-549 breast = tested on: BT-549 breast
CCRF-CEM leukemia = tested on: CCRF-CEM leukemia
DU-145 prostate = tested on: DU-145 prostate
HCC-2998 colon = tested on: HCC-2998 colon
HOP-62 NSCLC = tested on: HOP-62 NSCLC
MCF7 breast = tested on: MCF7 breast
MDA-MB-231 breast = tested on: MDA-MB-231 breast
MDA-MB-435 = tested on: MDA-MB-435
NCI-H23 lung = tested on: NCI-H23 lung
OVCAR-4 ovarian = tested on: OVCAR-4 ovarian
SK-MEL-28 melanoma = tested on: SK-MEL-28 melanoma
SK-MEL-5 melanoma = tested on: SK-MEL-5 melanoma
SK-OV-3 ovarian = tested on: SK-OV-3 ovarian
SN12C renal = tested on: SN12C renal
SR leukemia = tested on: SR leukemia
U251 CNS = tested on: U251 CNS
UACC-257 melanoma = tested on: UACC-257 melanoma
NCI-H226 lung = tested on: NCI-H226 lung

SMILES	TGI (786-0 renal) [µM]	TGI (A498 renal) [µM]	TGI (BT-549 breast) [µM]	TGI (CCRF-CEM leukemia) [µM]	TGI (DU-145 prostate) [µM]	TGI (HCC-2998 colon) [µM]	TGI (HOP-62 NSCLC) [µM]	TGI (MCF7 breast) [µM]	TGI (MDA-MB-231 breast) [µM]	TGI (MDA-MB-435) [µM]	TGI (NCI-H23 lung) [µM]	TGI (OVCAR-4 ovarian) [µM]	TGI (SK-MEL-28 melanoma) [µM]	TGI (SK-MEL-5 melanoma) [µM]	TGI (SK-OV-3 ovarian) [µM]	TGI (SN12C renal) [µM]	TGI (SR leukemia) [µM]	TGI (U251 CNS) [µM]	TGI (UACC-257 melanoma) [µM]	TGI (NCI-H226 lung) [µM]
Cc1ccc(C2SCC(=O)N2c2ccc(-c3ccc(-n4c(-c5ccccc5)nc5ccccc5c4=O)cc3)cc2)cc1 (stereo not given)	> 100	> 100	> 100	> 100	> 100	> 100	> 100	> 100	> 100	> 100	> 100	> 100	> 100	> 100	> 100	> 100	> 100	> 100	> 100	–
N#CCOc1ccc(/C=C/C(=O)c2ccc(Cl)cc2)cc1	48.1	49.5	11.7	> 100	> 100	98.8	57.5	54.1	85.5	> 100	76.3	> 100	> 100	43.6	37.3	> 100	> 100	99.3	> 100	> 100
COc1ccc(-c2nnc3n(Cc4ccccc4)c4ccccc4n3c2=O)cc1	25.1	99.6	> 100	> 100	> 100	> 100	12.2	> 100	> 100	> 100	> 100	43.6	> 100	> 100	–	> 100	> 100	55	> 100	97.4
Cn1cc(S(=O)(=O)NC(=O)Nc2ccc(Cl)cc2)c2ccccc21	> 100	> 100	> 100	> 100	> 100	> 100	> 100	> 100	> 100	> 100	> 100	> 100	> 100	> 100	> 100	> 100	> 100	> 100	> 100	> 100
COc1cccc(C2ON=C(c3ccccc3)N2C23CC4CC(CC(C4)C2)C3)c1 (stereo not given)	> 10	> 10	> 10	> 10	> 10	> 10	> 10	> 10	> 10	> 10	> 10	> 10	> 10	> 10	> 10	> 10	> 10	> 10	> 10	> 10
CC1(C)OCC(C2OC(OC(=O)c3ccc([N+](=O)[O-])cc3)C3OC(C)(C)OC23)O1 (stereo not given)	> 100	> 100	> 100	> 100	> 100	> 100	> 100	> 100	> 100	> 100	> 100	> 100	> 100	> 100	> 100	> 100	> 100	> 100	> 100	> 100
c1cc2nnc1SCCCSc1ccc(nn1)SCCCSc1ccc(nn1)SCCCS2	> 100	> 100	> 100	> 100	> 100	> 100	> 100	> 100	> 100	> 100	> 100	> 100	> 100	> 100	> 100	> 100	> 100	> 100	> 100	> 100
CC(C)COC(=O)OC(=O)c1ccc(N(C)Cc2cnc3nc(N)nc(N)c3n2)cc1	> 100	> 100	97.8	> 100	> 100	> 100	> 100	> 100	> 100	> 100	> 100	> 100	> 100	> 93.9	> 100	> 100	> 100	> 100	> 100	> 100
CC(=O)Nc1ccc(-c2nc3ccccc3s2)cc1C	> 100	21.6	> 100	> 100	55.6	> 100	> 100	> 100	> 100	> 100	> 100	> 100	> 100	> 100	> 100	–	> 100	> 100	> 100	> 100
CCN1C(=O)/C(=C2\SC(c3ccccc3)(c3ccccc3)c3ccccc32)SC1=S	> 100	> 100	> 100	> 100	> 100	> 100	68.1	> 100	> 100	> 100	> 100	> 100	> 100	> 100	> 100	> 100	42.9	> 100	> 100	> 100
Cc1c(/C=N/NC(=S)Nc2ccccc2)c(=O)n(-c2ccccc2)n1C	> 100	> 100	> 100	> 100	> 100	> 100	> 100	> 100	> 100	> 100	> 100	> 100	> 100	> 100	> 100	–	> 100	> 100	> 100	> 100
S=C(N/N=C/c1ccccn1)Nc1ccc(Cl)cc1	16.1	59.9	> 68.1	1.92	> 100	> 57.7	17.4	> 100	> 100	> 100	> 100	> 100	> 100	15.5	10.5	> 100	> 100	8.3	> 100	3.33
COc1cccc2c3ccccc3c3nc[nH]c3c12	> 57.9	> 90.5	> 100	52.5	> 100	> 55.6	> 100	> 100	> 79.2	> 94.6	> 100	> 100	> 77.2	30.4	> 100	> 100	46.6	> 100	> 63.8	> 95
C[N+](C)(C)/N=C/c1ccc(O)c(O)c1	> 100	> 100	> 100	> 100	> 100	> 100	> 100	> 100	> 100	> 100	> 100	> 100	> 96.4	> 100	> 100	> 100	> 100	> 100	> 100	> 100
COc1cc(/C=C/c2nc(N)nnc2C)cc(OC)c1OC	> 60.6	> 71.6	> 64	55.4	> 100	29.5	29	> 100	> 100	> 94.7	> 68.1	> 73.7	> 100	52.2	> 65.6	> 100	> 100	> 100	> 59.8	> 55.4
CCOC(=O)C1=c2[nH]c3cccc4cccc(c43)n2C(=O)CC1c1ccccc1 (stereo not given)	> 100	> 100	> 100	> 100	> 100	> 100	> 100	> 100	> 100	> 100	> 100	> 100	> 100	> 100	> 100	> 100	> 100	> 100	> 100	> 100
O=C(NNCC(F)(F)F)c1ccncc1	> 100	> 100	> 100	> 100	> 100	> 100	> 100	> 100	> 100	> 100	> 100	> 100	> 100	> 100	> 100	> 100	> 100	> 100	> 100	> 100
Cc1cc(=O)[nH]c2cc(NC(=O)C(CCCN=C(N)N)NC(=O)OCc3ccccc3)ccc12 (stereo not given)	> 100	> 100	> 100	> 100	> 100	> 100	> 100	> 100	> 100	> 100	> 100	> 100	> 100	> 100	25.6	> 100	> 100	> 100	> 100	> 100
COC1(OC)N=C(N)C2(C#N)C3(C(=O)N(C(C)C)N=C3C)C12C#N (stereo not given)	> 100	> 100	> 100	> 100	> 100	> 100	> 100	> 100	> 100	> 100	> 100	> 100	> 100	–	> 100	> 100	> 100	> 100	> 100	> 100
